# Values quoted from earlier work, collected in US20170042143A1, “ANIONIC POLYVINYL ALCOHOL COPOLYMER AS PROTECTIVE COLLOID FOR PESTICIDAL POLYUREA MICROCAPSULES” (BASF SE, priority 2014, published 2017).
# Settings: at 20° C.
structure (smiles),measurement,value
Cc1ccccc1CO[C@@H]1C[C@@]2(C(C)C)CC[C@]1(C)O2 (racemic) [Cinmethylin],solubility in water,about 0.06 g/l
